We go through two molecules from US9745506B2, “Treatment fluids for use in removing acid-soluble materials in subterranean formations” (Halliburton Energy Services, Inc., priority 2015, dated 2017).

The conditions of data set [1]: 25° C.; cited from earlier work.
A further data set is described as follows: solubility of PMIDA. Format: physicochemical. Conditions: room temperature. From the text: The solubility of the PMIDA in the MSA and the ability of both the MSA and the PMIDA to remove acid-soluble materials of the present disclosure synergistically operate to continuously remove acid-soluble materials at deeper far-field locations than traditional acid fluids, which may become spent prior to reaching such deep areas.
In the working temperature range of the treatment fluid, as described above, the PMIDA may be solubilized in the MSA of the treatment fluids described herein. In some embodiments, the PMIDA is about 5% w/v soluble at room temperature in a solution of about 70% MSA in an aqueous base fluid, described below. In other embodiments, higher w/v concentrations of PMIDA may be prepared using varied solutions of MSA alone or in combination with an aqueous base fluid, which will undergo different dissolution amounts depending on the working temperature of the treatment fluid. Each of these values is critical to the embodiments described herein and may depend on a number of factors including, but not limited to, the working temperature of the treatment fluid (e.g., the temperature or temperature range of the subterranean formation being treated), the amount of MSA in the treatment fluid relative to the PMIDA, the amount of PMIDA in the treatment fluid relative to the MSA, and the like.

The conditions of data set [2]: cited from earlier work.

Read-outs that look alike come from different tables or passages of the source.

With `O=C(O)CN(CC(=O)O)CP(=O)(O)O` [PMIDA, N-(phosphonomethyl)iminodiacetic acid], in data set [1], the solubility in water is below 0.5 g/L. In “solubility of PMIDA”, the “soluble in a solution of about 70% MSA in an aqueous base fluid” value is on record as “about 5 % w/v”.
A word on the pKa: it is the pH at which an ionisable group is half protonated. As to methanesulfonic acid [MSA], the figures for the pKa entry in data set [2] (25° C. in dimethyl sulfoxide) and in data set [2] (25° C. in water) were “about 1.6” and −1.9, respectively.
